Values joined by “and” are separate entries in the source; they are usually repeats but may differ in a detail not shown here. Equal values may be shown once.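 Interpolation was linear, between the two tested concentrations surrounding the appropriate level; five concentrations were tested over 48 hours in 96-well plates. TGI marks complete inhibition of growth.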 Where a SMILES comes first, the peptide text is derived from it.
How the values were obtained:
Experiment in all cases: NCI-60 cell line screen, 48 h
MOLT-4 leukemia = system: MOLT-4 leukemia
SF-539 CNS = system: SF-539 CNS
DLD-1 colon = system: DLD-1 colon
DMS 114 small cell lung = system: DMS 114 small cell lung
DMS 273 small cell lung = system: DMS 273 small cell lung
HOP-18 NSCLC = system: HOP-18 NSCLC
KM20L2 colon = system: KM20L2 colon
LXFL 529 NSCLC = system: LXFL 529 NSCLC
M19-MEL melanoma = system: M19-MEL melanoma
RXF-631 renal = system: RXF-631 renal
SNB-78 CNS = system: SNB-78 CNS
XF 498 CNS = system: XF 498 CNS

Structure (SMILES) | TGI (MOLT-4 leukemia) | TGI (SF-539 CNS) | further results
CC(C)(C)CC(C)(C)N=C(N)NO | > 100 µM | > 100 µM | 
CC[N+]1(C)CCC(O)(c2ccccc2)C(C(=O)c2ccccc2)C1 (configuration not stated) | 11.3 µM | 31.3 µM | TGI (DLD-1 colon): 27.2 µM; TGI (DMS 114 small cell lung): 44.3 µM; TGI (DMS 273 small cell lung): 47.1 µM; TGI (HOP-18 NSCLC): 31 µM; TGI (KM20L2 colon): 44.5 µM; TGI (LXFL 529 NSCLC): 23.6 µM; TGI (M19-MEL melanoma): 36 µM
C[C@]12CC[C@H](O)C=C1CC[C@@H]1[C@@H]2CC[C@]2(C)C(=N/O)/C(=C/c3ccncc3)C[C@@H]12 | > 100 µM | 27.3 µM | 
COC(=O)c1c2c(c(-c3ccccc3)c3c1-c1nc(Cl)ccc1CC3)CCc1ccc(Cl)nc1-2 | > 100 µM | > 100 µM | TGI (DLD-1 colon): > 100 µM; TGI (HOP-18 NSCLC): > 100 µM; TGI (KM20L2 colon): > 100 µM; TGI (LXFL 529 NSCLC): > 100 µM; TGI (M19-MEL melanoma): > 100 µM; TGI (RXF-631 renal): > 100 µM; TGI (SNB-78 CNS): > 100 µM
COc1ccc2oc(=O)c3c(c2c1C)OC(C)(C)C=C3 | > 100 µM | > 100 µM | 
O=C(NCCNCCNCCNC(=O)c1cc(-c2ccccc2)nc2ccccc12)c1cc(-c2ccccc2)nc2ccccc12 | 4.22 µM | 3.85 µM | 
CC(C)[Si](OC1=C(C(=O)N(C)c2ccccc2Cl)CCCC1)(C(C)C)C(C)C | 43 µM | 32.7 µM | 
Cc1cc2c(cc1C)C(=O)C1(C2)Cc2c(ccc(C)c2C)C1=O (configuration not stated) | > 100 µM | > 100 µM | 
S=C(N/N=C(/c1ccccc1)c1ccccn1)Nc1ccc(Cl)cc1 | > 13.8 µM | 8.55 µM | 
CC(=O)NC(CS)C(=O)NC(CO)C(=O)NC(CO)C(=O)NC(Cc1c[nH]c2ccccc12)C(=O)N1CCCC1C(=O)NC(CO)C(=O)NC(Cc1c[nH]c2ccccc12)C(=O)NC(Cc1c[nH]cn1)C(=O)NC(CO)C(=O)NC(Cc1c[nH]c2ccccc12)C(=O)NCC(=O)NCC(=O)NC(CC(=O)O)C(=O)NC(CCC(N)=O)C(=O)NC(CCCCN)C(=O)NC(Cc1ccccc1)C(=O)NC(CCCNC(=N)N)C(=O)NC(CCCCN)C(N)=O (configuration not stated) (Ac-CSSWPSWHSWGGDQKFRK-NH2; configuration not given here) | > 25 µM | > 25 µM | 
CCO/C=N/C1=C(C#N)C(c2ccc(Cl)cc2)c2c(-c3ccccc3)nn(-c3ccccc3)c2O1 (configuration not stated) | > 100 µM | > 26.2 µM | 
NC1CC(=O)c2csc(Cl)c21 (configuration not stated) | 3.87 µM | 9.56 µM | 
CC1=C(C#N)C2C(=C(N)Oc3ccccc32)C(N)=N1 (configuration not stated) | > 100 µM | 61.3 µM | 
O=C(O)c1nc2ccccc2nc1Nc1ccc(F)cc1 | > 100 µM | 60 µM | 
CCCN(CCC)c1cc2c(cc1F)c(=O)c(C(=O)O)cn2-c1ccc(N2CCN(C)CC2)cn1 | 43.4 µM | 32.6 µM | 
CC(C)C1SCc2nc3ccccc3n21 (configuration not stated) | 81.6 µM | > 100 µM | 
NC1=CN(Cc2ccccc2)C2=N/C(=C\c3ccccc3)C(=O)N12 | > 100 µM | > 100 µM | 
COc1ccccc1N1C(=O)CS(=O)(=O)C1c1cccc(Oc2ccccc2)c1 (configuration not stated) | 38.8 µM | 32.6 µM | 
NCCCCN(CCCN)Cc1ccccc1 | > 100 µM | > 100 µM | 
Cc1nc(-c2nc(C)c(C(=O)NN(C)C)s2)sc1C(=O)NN(C)C | > 100 µM | > 100 µM | TGI (DLD-1 colon): > 100 µM; TGI (DMS 273 small cell lung): 38.9 µM; TGI (HOP-18 NSCLC): > 100 µM; TGI (KM20L2 colon): > 100 µM; TGI (LXFL 529 NSCLC): > 100 µM; TGI (M19-MEL melanoma): > 100 µM; TGI (SNB-78 CNS): > 100 µM; TGI (XF 498 CNS): > 100 µM
COC(=O)[C@]12CCC(C)(C)C[C@H]1C1=CC[C@@H]3[C@@]4(C)CC[C@H](OC5OC(CO)C(O)C(O)C5OC5OC(CO)C(O)C(O)C5O)C(C)(C)[C@@H]4CC[C@@]3(C)[C@]1(C)CC2 (some centres not stated) | 40.8 µM |  | 
COc1cc2nc(-c3ccccc3F)[nH]c(=O)c2cc1OC | > 100 µM |  | 

Structure (SMILES) | TGI (MOLT-4 leukemia) | TGI (SF-539 CNS) | further results
CC(=O)c1nc2ccccc2n1CC(=O)c1ccc(Cl)cc1 | > 100 µM | > 100 µM | 
Cc1cc(S(=O)(=O)NC2=NC(c3ccccc3)c3ccccc3N2)c(S)cc1Cl (configuration not stated) | > 100 µM | > 100 µM | 
CO[C@@H]1C=C[C@@]23c4cc5c(cc4C(O)N(CC2O)C3C1)OCO5 (some centres not stated) | > 100 µM | > 100 µM | 
N#Cc1c(C#N)c(-c2ccco2)n(-c2ccccc2)c1N | > 100 µM | > 100 µM | 
CC(C)(C)OC(=O)NC(Cc1ccc(OCc2ccccc2)cn1)C(=O)NCc1ccccc1 (configuration not stated) | 42 µM |  | 
COc1ccc(N2C(=O)c3cccnc3S2(=O)=O)cc1 | > 100 µM | > 100 µM | 
COC(=O)[C@@H]1C2OC(C)(C)OC2CN1C(=O)OCc1ccccc1 (some centres not stated) | > 100 µM | > 100 µM | 
Cc1ccc(CC2(OCCN(C)C)CCC(C(C)(C)C)CC2)cc1 (configuration not stated) | 4.11 µM and 4.8 µM | 4.55 µM and 8.81 µM | 
Nc1nc(Cl)cc(NCC2(CO)CCC(O)C2)n1 (configuration not stated) | > 100 µM | > 100 µM | 
O=c1cc(-c2ccccc2)oc2ccc(-c3ccc4oc(-c5ccccc5)cc(=O)c4c3)cc12 | 27.5 µM | 30.8 µM | 
COc1ccc(C2CC(c3ccc4ccccc4c3O)=NN2C(C)=O)cc1OC (configuration not stated) | > 100 µM | > 100 µM | 
O=C(Nc1nnc(-c2c(Cl)c(Cl)c(Cl)c(Cl)c2-c2nc3cc(C(=O)c4ccccc4)ccc3[nH]2)o1)c1ccccc1 | 72.5 µM | 23.7 µM | 
CCCNC(C#N)c1ccc(OCCCCCCCCCCOc2ccc(C(C#N)NCCC)cc2)cc1 (configuration not stated) | 39.8 µM | > 100 µM | 
O=C1CSC(c2ccc(Cl)cc2)N1c1ccc(-c2ccc(-n3c(-c4ccccc4)nc4ccccc4c3=O)cc2)cc1 (configuration not stated) | 83.6 µM | > 100 µM | 
CCN(CC)CCn1c2cc3c(cc2c(=O)c2cccnc21)OCO3 | > 10 µM | > 10 µM | 
COCOCC1CCCN1CN1CCC[C@H]1COCOC (some centres not stated) | > 100 µM |  | 
COc1ccc2c(c1)CCCN1Cc3cc(OC)c(OC)cc3CC21 (configuration not stated) | > 100 µM | > 100 µM | 
O=C(O)Cc1cccc2c1OC(c1ccccc1)C(C(=O)c1ccccc1)C2=O (configuration not stated) | > 100 µM | > 100 µM | 
COc1ccc2nc(NC(=O)C(=O)C(C(=O)c3ccccc3-c3ccccc3)C3OC(=O)c4ccccc43)sc2c1 (configuration not stated) | 89.5 µM | 28.9 µM | TGI (DLD-1 colon): 40.9 µM; TGI (DMS 114 small cell lung): 37.2 µM; TGI (KM20L2 colon): 50.1 µM; TGI (LXFL 529 NSCLC): 26.3 µM; TGI (M19-MEL melanoma): 31 µM; TGI (RXF-631 renal): 71.6 µM; TGI (SNB-78 CNS): > 100 µM; TGI (XF 498 CNS): 45.7 µM
CC(C)Oc1ccc(CNC2=NCCO2)c2ccccc12 | 19.8 µM | 24 µM | 
CN(C)c1nc(=NCc2cccs2)ss1 | > 6.29 µM | > 10 µM | 
